#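 48-hour exposure; five concentrations; linearly interpolated endpoints. GI50 = concentration required for 50% inhibition of growth. Definition used: TGI = concentration required for complete inhibition of growth.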
# Experiments:
# Assay in all cases: growth of human tumour cells (NCI), 48 h
# HCT-15 colon = test system: HCT-15 colon
# LOX IMVI melanoma = test system: LOX IMVI melanoma
# T-47D breast = test system: T-47D breast
# BT-549 breast = test system: BT-549 breast
# NCI/ADR-RES ovarian = test system: NCI/ADR-RES ovarian
# DU-145 prostate = test system: DU-145 prostate
# RPMI-8226 leukemia = test system: RPMI-8226 leukemia
# NCI-H23 lung = test system: NCI-H23 lung
# M19-MEL melanoma = test system: M19-MEL melanoma
# LXFL 529 NSCLC = test system: LXFL 529 NSCLC
Compound,GI50 (HCT-15 colon) [µM],TGI (HCT-15 colon) [µM],GI50 (LOX IMVI melanoma) [µM],TGI (LOX IMVI melanoma) [µM],GI50 (T-47D breast) [µM],TGI (T-47D breast) [µM],GI50 (BT-549 breast) [µM],TGI (BT-549 breast) [µM],GI50 (NCI/ADR-RES ovarian) [µM],TGI (NCI/ADR-RES ovarian) [µM],GI50 (DU-145 prostate) [µM],TGI (DU-145 prostate) [µM],GI50 (RPMI-8226 leukemia) [µM],TGI (RPMI-8226 leukemia) [µM],GI50 (NCI-H23 lung) [µM],TGI (NCI-H23 lung) [µM],TGI (M19-MEL melanoma) [µM],TGI (LXFL 529 NSCLC) [µM]
CN1CCN(CC(=O)N2c3cccc4cccc(c34)N(C(=O)CN3CCN(C)CC3)C2c2cn(-c3ccccc3)nc2-c2cccc([N+](=O)[O-])c2)CC1,1.98,4.06,1.74,3.22,1.97,4.34,1.67,3.26,3.68,14.3,3.27,10.4,1.76,4.33,2.13,5.45,–,–
COC(=O)[C@@]12C=CC(=O)[C@H]3C[C@@H](C(C(C)C)C1)[C@]32OC (some centres not stated),–,> 100,–,–,–,–,–,–,–,–,–,–,–,> 100,–,> 100,> 100,> 100
Cc1ccc(N2C(=O)C(Cl)=C(Cl)C2=O)cc1,–,33.3,–,55.5,–,–,–,–,–,–,–,–,–,52.8,–,41.3,41.9,38.5
CCCCCCCCCCCCC(CCCCCCCCCCCC)OP(=O)(O)O,–,> 100,–,> 100,–,–,–,–,–,–,–,–,–,> 100,–,> 100,> 100,> 100
Cc1ccc(C2=NN(c3ccc(S(N)(=O)=O)cc3)C(c3cn(-c4ccccc4)nc3-c3ccccc3)C2)cc1 (configuration not stated),7.53,> 100,24.9,> 100,9.13,> 100,3.85,61.6,11.1,> 100,67.9,> 100,6.35,> 100,14.1,> 100,–,–
C[C@@H]1OCC2(CCN(c3cnc(Sc4ccnc(N)c4Cl)c(N)n3)CC2)[C@@H]1N,> 100,> 100,> 100,> 100,46.3,> 100,34.6,> 100,> 100,> 100,> 67.8,> 100,37.6,> 100,1.34,> 100,–,–
Nc1nc(-c2ccc(Cl)cc2)cc(-c2ccccc2)c1-c1nc2ccccc2o1,6.15,28.3,2.42,5.77,10.2,27.2,13.5,28.3,5.46,> 100,7.68,30.4,6.9,23,6.24,34.6,–,–
COc1cc2c3c(n(CCCN4CCCC(O)C4)c(=O)c2cc1OC)-c1cc2c(cc1C3=O)OCO2 (configuration not stated),0.709,1.7,0.0213,0.849,1.16,3.2,0.898,3.21,0.0503,1.06,< 0.005,0.592,0.0961,0.447,0.0421,0.775,–,–
C=C1C(=O)O[C@H]2[C@H]1CC/C(COC(=O)NCc1cc(OC)cc(OC)c1)=C\CC[C@@]1(C)O[C@@H]21,0.77,2.25,0.549,1.89,1.85,4.83,1.57,3.07,2.98,10.2,0.724,2.03,1.8,6.25,1.84,4.32,–,–
C=CCSSc1ncnc2c1ncn2C1OC(CO)C(O)C1O (configuration not stated),3.28,> 100,0.37,> 78.6,0.976,> 100,3.67,> 100,3.86,> 100,1.24,> 48.1,1.15,6.47,3.94,> 74.2,–,–
Cc1cc(N(CCOS(C)(=O)=O)CCOS(C)(=O)=O)ccc1C=Nc1ccc(-c2csc(-c3ccc(Br)cc3)n2)cc1,–,50.3,–,36.5,–,80.1,–,> 76.4,–,90.7,–,57.4,–,> 100,–,41.7,–,–
CCOC(=O)NC1CC2CCC1(OC)C=C2C (configuration not stated),–,> 100,–,> 100,–,–,–,–,–,–,–,–,–,> 100,–,> 100,> 100,> 100
CC(=O)[O][Bi]([c]1ccccc1)[c]1ccccc1,1.92,4.06,1.98,5.24,5.61,> 100,2.94,9.32,19.1,37.5,21.3,50.2,2.59,5.99,11.5,27.8,–,–
O=S(=O)(Nc1ccccn1)c1ccc(N=Nc2ccc(O)c3ncccc23)cc1,0.844,15.7,0.735,16,2.98,8.7,1.25,7.04,1.02,12.8,3.22,26.7,0.748,27.7,2.34,16,–,–
COc1ccc2nc(-c3cc4c([nH]c5ccccc54)c(-c4ccc(F)c(F)c4)n3)[nH]c2c1,3.41,16.7,2.86,10.8,3.76,20,6.3,22.5,4.22,64.8,4.13,17.3,1.55,4.29,6.56,27.5,–,–
Nc1c2ccccc2nc2ccccc12 (tested in a mixture with another compound),2.03,10.4,1.87,5.94,1.87,5.98,4.42,17.6,1.74,6,2.38,6.51,3.86,> 100,1.94,5.68,–,–

# Source: PubChem BioAssay (NCI)
